Reference: patent US10512673B2, “Use of peptide-based inhibitors of the stat3-IL10 pathway for treating bacterial infection and granulomatous disease” (The United States of America, as Represented by the …, priority 2015, dated 2019)
“Also recorded” adds a separate entry of the source. Where no end group is shown, it is not given here. [ ]: non-standard residue; d: D form. The star is where a group is joined. Palmitoyl = CCCCCCCCCCCCCCCC(=O)*

Columns and labels:
[1] = system: Mycobacterium tuberculosis (Erdman strain); conditions: in vivo
[2] = system: Mycobacterium tuberculosis (Erdman strain); conditions: in vivo; remark: listed apart in the source
stat3 = system: stat3; set-up: species or system C57BL/6 mice; conditions: mouse, in vivo
Il-10 [3] = system: Il-10; set-up: species or system C57BL/6 mice; conditions: mouse, in vivo
pSTAT3 (pY705) = assay: ELISA for pSTAT3 in lung homogenates; type: in vivo, C57BL/6 mice; conditions: after two weeks of treatment (100 μg/dose), vs untreated infected mice
Method: Lung homogenates were screened for pSTAT3 (pY705 (tyrosine 705)) by ELISA following manufacturer's recommendations (Life Technologies). Briefly, the lung homogenates were re-suspended in the cell extraction buffer and incubated during 30 minutes on ice with intermittent vortexing followed by pelleting of the cell debris. Supernatants from each sample were collected and screened for their content of STAT3 (pY705). Standards were prepared using purified recombinant phosphorylated STAT3 protein. Thereafter, 100 μl of standards and diluted samples or control aliquots were distributed into microtiter wells and were incubated in the wells pre-coated with anti-pSTAT3 antibody. The reactions were developed using the detection anti-pSTAT3 antibody followed by 30 minutes incubation at RT with anti-rabbit IgG HRP. The reactions were visualized by incubation with a chromogenic substrate of HRP during 30 minutes at room temperature. The reactions were stopped with 100 μl of stop solution added to each well. Absorbance for each well was read at 450 nm.

Il-10 [4] = assay: Cytometric bead array for IL-10 in lung homogenates; set-up: species or system C57BL/6 mice; conditions: mouse, in vivo
nos2 [5] = assay: RT-PCR of nos2 transcript in lungs; type: in vivo, C57BL/6 mice; conditions: for mRNA nos2 expression (in words): mouse, in vivo
arg1 [6] = assay: RT-PCR of arg1 transcript in lungs; type: in vivo, C57BL/6 mice; conditions: for mRNA arg1 expression (in words): mouse, in vivo
nos2 [7] = assay: NOS2 activity in lung homogenates (Griess reaction); type: in vivo, C57BL/6 mice; conditions: 100 μg/dose, vs untreated infected mice
Method: (§1) The quantification of end effector molecules and enzymes involved in the host antimicrobial activity in the lungs of mice were performed using lung homogenates obtained as indicated above. Lung homogenate supernatants were used in a Griess reaction (G 7921, Molecular probes, Invitrogen, Eugene, Oreg.), Arginase assay (Bioassay Systems, DARG-200), NADPH (Bioassay Systems, ECNP-100), and lysozyme (Molecular Probes E-22013).
For the Griess reaction, reagents were acclimated at room temperature for 20 min prior to the assay. Thereafter, the samples were centrifuged at 1200 rpm for 2 min and the Griess reaction was performed following the manufacturer's instructions. Briefly, samples and prepared standards were diluted following the manufacturer's instructions with distilled sterile water in a 96 well plate. 20 μl of Griess reaction were added to each reaction well. Samples and standards were incubated for 30 minutes in the dark. Thereafter, samples were read using a Biotech Synergy 2 Multi-Mode Micro Plate Reader [U5] spectrophotometer at 546 nm.

arg1 [8] = assay: Arginase activity in lung homogenates; type: in vivo, C57BL/6 mice; conditions: 100 μg/dose, vs untreated infected mice
Method: as §1
The level of arginase activity in each lung homogenate was performed using the Quanti-Chrom Arginase Assay Kit (Bio Assay Systems, Hayward, Calif.). Briefly, protein concentration was normalized to 100 μg/ml. As a control, an aliquot of normalized protein was heat-inactivated at 90° C. for 10 min. 40 μl of untreated or heat-inactivated sample was incubated at 37° C. for 60 min with 10 μl of 5× reagent. Thereafter, the reaction was processed as recommended by the manufacturer and analyzed in a plate reader (Bio-Rad, Hercules, Calif.) at an absorbance of 430 nm. The absorbance of the heat-inactivated sample was subtracted from the respective untreated sample and then compared to urea standards. Activity of the arginase was reported in mU/mg of protein.

NADPH = NADPH assay in lung homogenates; type: in vivo, C57BL/6 mice; conditions: 100 μg/dose, vs untreated infected mice
Method: as §1
For the NADPH assay, each lung homogenate was mixed in a 1.5 mL Eppendorf tube with 100 μL NADPH extraction buffer for NADPH determination. Extracts then were heated at 60° C. for 5 min and then 20 μl assay buffer and 100 μl of the opposite extraction buffer were added to neutralize the extracts. Samples were briefly vortexed and centrifuged at 13,000 rpm for 5 min. The resulting supernatant was used for NADPH assays. 40 μl of standards were then transferred into wells of a clear bottom 96-well plate. For each well of the reaction, 80 μL working reagent were added per well quickly. Optical density for time “zero” (OD0) optical density after 30 min incubation (OD30) at room temperature were read at 565 nm (520-600 nm).

lysozyme = assay: Lysozyme assay in lung homogenates; type: in vivo, C57BL/6 mice; conditions: 100 μg/dose, vs untreated infected mice
Method: as §1
The Lysozyme assay was performed as per manufacturer's instructions. Briefly, experimental samples were first diluted in 1× reaction buffer. A volume of 50 μl was used for each reaction. Then, 50 μl of the 50 μg/ml DQ lysozyme substrate were added to each microplate well containing the experimental or the standard curve samples. The reaction mix was then incubated at 37° C. for 30 min protected from light. The fluorescence in each of the samples was measured at absorption maxima at ˜494 nm and fluorescence emission maxima at ˜518 nm.

TNFα = assay: Cytometric bead array for TNFα in lung homogenates; type: in vivo, C57BL/6 mice; conditions: CBA, 100 μg/dose, vs control mice
IFNγ = assay: Cytometric bead array for IFNγ in lung homogenates; type: in vivo, C57BL/6 mice; conditions: CBA, 100 μg/dose, vs control mice
IL-12p40 = assay: Cytometric bead array for IL-12p40 in lung homogenates; type: in vivo, C57BL/6 mice; conditions: CBA, 100 μg/dose, vs control mice
IL-6 = assay: Cytometric bead array for IL-6 in lung homogenates; type: in vivo, C57BL/6 mice; conditions: CBA, 100 μg/dose, vs control mice
[9] = system: granuloma lesions in the lungs; assay: Lung histopathology (H&E); set-up: species or system C57BL/6 mice; conditions: mouse, in vivo
pSTAT3 = assay: Immunohistochemistry for pSTAT3 in lung tissue sections; set-up: species or system C57BL/6 mice; conditions: mouse, in vivo
bcl-2 [10] = assay: qRT-PCR of bcl-2 transcript in lungs; type: in vivo, C57BL/6 mice; conditions: 100 μg/dose
Method: (§2) The upper right lobe of the lungs from each mouse were homogenized in Trizol (Invitrogen) using Next Advance bullet blender (Averill Park, N.Y.) and frozen at −80° C. immediately. RNA was extracted following the manufacturer's protocol. Trizol DNA was digested with RQ1 RNase-free DNase (Promega, Madison, Wis.) and RNA was re-isolated using Trizol. Finally, the concentration of RNA in each sample was measured by spectrophotometry and the RNA was reverse transcribed with M-Mulv (New England Bio Labs, Ipswich, Mass.) and random hexamers (Roche, Basel, Switzerland).
(§3) When lung homogenates from each mouse were used to determine the levels of expression of Bcl-2 and Atg-5 protein using ELISA, the results were similar to those obtained by qRT-PCR.

bax = assay: qRT-PCR of bax transcript in lungs; type: in vivo, C57BL/6 mice; conditions: 100 μg/dose
Method: as §2, §3

atg5 = assay: qRT-PCR of atg5 transcript in lungs; type: in vivo, C57BL/6 mice; conditions: 100 μg/dose
Method: as §2, §3

beclin-1 = assay: qRT-PCR of beclin-1 transcript in lungs; type: in vivo, C57BL/6 mice; conditions: 100 μg/dose
Method: as §2, §3

bcl-2 [11] = assay: ELISA for Bcl-2 protein in lung homogenates; type: in vivo, C57BL/6 mice; conditions: 100 μg/dose, vs untreated infected mice
Text: as §3

[12] = mouse, in vivo
[13] = RT-PCR, lungs, 100 μg/dose, vs control mice

| Substance | reduction of pulmonary bacterial load [1] | pulmonary expression of stat3 transcript (stat3) | pulmonary expression of il-10 transcript (Il-10 [3]) | level of pSTAT3 in lung homogenates (pSTAT3 (pY705)) | level of IL-10 in lung homogenates (Il-10 [4]) | mRNA nos2 expression (in words) (nos2 [5]) | mRNA arg1 expression (in words) (arg1 [6]) | NOS2 activity (concentration of NO) (nos2 [7]) | Arg1 activity (arg1 [8]) | NADPH activity (pyridine nucleotide) (NADPH) | lysozyme activity (DQ substrate) (lysozyme) | level of TNFα in the lungs (TNFα) | level of IFNγ expression in the lungs (IFNγ) | expression level of IL-12p40 in the lungs (IL-12p40) | expression level of IL-6 in the lungs (IL-6) | histopathology of H&E stained lung sections [9] | pSTAT3 staining by IHC in lung tissue sections (pSTAT3) | change of pulmonary CFU (in words) [1] | expression of bcl-2 transcript (in words) (bcl-2 [10]) | expression of bax transcript (in words) (bax) | other results |
| --- | --- | --- | --- | --- | --- | --- | --- | --- | --- | --- | --- | --- | --- | --- | --- | --- | --- | --- | --- | --- | --- |
| LDTRYLEQLHKLY [ST3-H2A2] | 1.7 log10 CFU | no significant changes | increased levels of expression | little change | little change | increased more significantly | decreased expression | significantly elevated | reduced or not changed | significantly elevated | significantly elevated | reduced | decreased and down | increased and up | increased | increased numbers of clusters and highly packed lymphocytes | reduced levels of pSTAT3 staining in the center of the granuloma lesions |  |  |  | reduction of pulmonary CFU [1]: 0.6 log10; reduction of splenic bacilli load [2]: 0.9 log10CFU; increase in expression of bcl-2 transcript (bcl-2 [10]): > 3 fold; increase in expression of bax transcript (bax): > 3 fold; increase in expression of atg5 transcript (atg5): > 3 fold; increase in expression of beclin-1 transcript (beclin-1): > 3 fold; level of Bcl-2 protein in lung homogenates (bcl-2 [11]): significantly increased; adverse effects during treatment (body weight) [12]: mild weight loss |
| Ac-EETQLSPKTSGFGSDTSGHLK-E-Pal (Ac-[dE][dE][dT][dQ][dL][dS][dP][dK][dT][dS]G[dF]G[dS][dD][dT][dS]G[dH][dL][dK](Palmitoyl); not fully specified; also: name K-E-Pal / C-terminal Glu-palmitoyl: Glu between Lys and palmitoyl?) [IL10R1-14] |  | no significant changes | no significant changes | no significant changes | no significant changes |  |  | lower or no increase | increased | lower or no increase | lower or no increase | reduced | increased and up | down |  |  |  | slight increase; also recorded: only the group of mice receiving the peptide inhibitor ST3-H2A2 had reduced the pulmonary CFU | reduced expression | reduced expression | increase in nos2 transcript expression (nos2 [5]; [13]): 2 fold; increase in arg1 transcript expression (arg1 [6]; [13]): 10 fold; expression of atg5 transcript (in words) (atg5): increased expression; expression of beclin-1 transcript (in words) (beclin-1): reduced expression |
| ε-Pal-KLVTLPLISSLQSSE-NH2 (K(Palmitoyl)LVTLPLISSLQSSE-NH2; N-terminus assumed; SMILES CCCCCCCCCCCCCCCC(=O)NCCCC[C@H](N)C(=O)N[C@@H](CC(C)C)C(=O)N[C@H](C(=O)N[C@H](C(=O)N[C@@H](CC(C)C)C(=O)N1CCC[C@H]1C(=O)N[C@@H](CC(C)C)C(=O)N[C@H](C(=O)N[C@@H](CO)C(=O)N[C@@H](CO)C(=O)N[C@@H](CC(C)C)C(=O)N[C@@H](CCC(N)=O)C(=O)N[C@@H](CO)C(=O)N[C@@H](CO)C(=O)N[C@@H](CCC(=O)O)C(N)=O)[C@@H](C)CC)[C@@H](C)O)C(C)C) [IL10R1-7] | 0.6 | lower levels | lower levels | lower levels | lower levels | reduction in transcript expression for nos2 and arg1 but not significantly for nos2 | reduction | significantly elevated | reduced or not changed | significantly elevated | significantly elevated | reduced and down | decreased and down | decreased and up | decreased | increased numbers of clusters and highly packed lymphocytes | reduced levels of pSTAT3 staining in the center of the granuloma lesions | only the group of mice receiving the peptide inhibitor ST3-H2A2 had reduced the pulmonary CFU | reduced expression | reduced expression | expression of atg5 transcript (in words) (atg5): increased expression; expression of beclin-1 transcript (in words) (beclin-1): reduced expression |
